Reference: patent publication US20250339391A1, “METHODS FOR EFFECTIVE MANAGEMENT OF PAIN” (South Rampart Pharma, Inc., priority 2024, published 2025)

Columns and labels:
dog = settings: in vivo
Experimental: To determine the appropriate doses, maximum tolerated dose studies (non-GLP) were conducted prior to the definitive GLP systemic toxicity studies. SRP-001 was evaluated by a full battery of GLP-compliant toxicity studies. Systemic toxicity was evaluated in Sprague-Dawley rats and Beagle dogs by oral administration over 28 days (FIG. 24 and FIGS. 27-28, Table 2). […]

healthy volunteers = test: Phase 1 safety and tolerability; type: in vivo, human
Experimental: A randomized, double-blind, placebo-controlled Phase 1 trial (ClinicalTrials.gov identifier: NCT05484414) was conducted to assess the safety, tolerability, food effect, pharmacokinetics (PK), and pharmacodynamics (PD) of single and multiple ascending doses of SRP-001 (Quotient Sciences, Miami FL USA; FIG. 3H and Online Methods). The trial was conducted in accordance with the International Council for Harmonisation of Technical Requirements for Pharmaceuticals for Human Use (ICH), Guideline for GCP: Consolidated Guidance (E6), attained Institutional Review Board approval, and all applicable regulatory requirements for Phase 1, First in Human clinical trials. Safety measurements and plasma samples to determine PK parameters were collected throughout the study for all subjects and reviewed by the Safety Review Committee. PK stopping criteria were established to assure that systemic exposure to SRP-001 was less than or equal to the systemic exposure achieved at the NOAEL doses in the 28-day repeat-dose toxicology studies in the rat and dog. The trial's Safety Advisory Committee has approved the publication of the Phase 1 results.
A two-part randomized, double-blind, placebo-controlled Phase 1 trial was conducted to assess the safety, tolerability, PK and PD of SRP-001 ascending doses (Quotient Sciences, Miami, FL USA). […]
Safety—Holter (continuous ECG) Monitoring: NHVs also underwent continuous ECG Holter monitoring from at least 1 h prior to dosing until 24 h post-dose, and resulting measurements were monitored consistently. […] Where any scheduled rest times were missed, where there was less than a 10-min rest period, or where the final 5 min of a rest period was interrupted (for example, by subject movement or loss of leads), a protocol deviation was recorded, and the Holter provider was informed. Loss of leads or interruption of the recording outside of the scheduled rest times was not considered a protocol deviation but was recorded in the source. […]

[1] = Jet milling and nano-milling: particle size and solubility; type: physicochemical
Experimental: In certain instances, a crystalline compound of Formula I is jet milled. Thereafter, the milled compound of Formula I is dispersed in a solution comprising 1% hydroxypropyl cellulose (1% HPC) and sterile water for injection and subjected to wet milling. The target particle size is approximately D90 0.15 μm. The disclosure provides using nanomilling and jet-milling techniques, to prepare an oral nanoparticle suspension containing 100 mg/mL SRP-001 in preserved aqueous 1% HPC. An oral nanoparticle suspension containing 100 mg/mL SRP-001 in aqueous 1% HPC preserved with 0.1% sodium benzoate was used.
(§1) The drug therapeutic candidate is manufactured in a two-step process (Latitude Pharmaceuticals, Inc., San Diego, CA USA). First, SRP-001 is jet milled. Second, the milled API is dispersed in a solution comprising 1% hydroxypropyl cellulose (1% HPC) and sterile water for injection and subjected to wet milling. The target particle size is approximately D90 0.15 μm. […] An oral nanoparticle suspension containing 100 mg/mL SRP-001 in aqueous 1% HPC preserved with 0.1% sodium benzoate was manufactured for use in nonclinical studies as Lot LPI2021028 and stored at 5° C.±3° C. […] The same formulation as above was manufactured under cGMP for use in clinical studies as Lot LPI2021031 and stored at 5° C.±3° C. […] This lot has been placed on stability at 5° C., 25° C./60% RH, and 40° C./75% RH. Finally, an appearance-matched placebo consisting of 2% microcrystalline cellulose in aqueous 1% HPC preserved with 0.1% sodium benzoate and 0.05% EDTA disodium dihydrate was manufactured under cGMP for use in clinical studies. The above oral suspensions were manufactured by Latitude Pharmaceuticals Inc. (San Diego, CA, USA).

[2] = Phase 1 multiple ascending dose (MAD) pharmacokinetics; type: in vivo, human
Experimental: A two-part randomized, double-blind, placebo-controlled Phase 1 trial was conducted to assess the safety, tolerability, PK and PD of SRP-001 ascending doses (Quotient Sciences, Miami, FL USA). The study was conducted in accordance with the International Council for Harmonisation of Technical Requirements for Pharmaceuticals for Human Use (ICH), Guideline for GCP: Consolidated Guidance (E6), and applicable regulatory requirements(s) including clinical research guidelines established by the Basic Principles defined in the U.S. 21 CFR Parts 50, 56, and 312 and the principles enunciated in the Declaration of Helsinki (revised version Fortaleza 2013). The clinical protocol and informed consent form were reviewed and approved by an Institutional Review Board (IRB; Advarra IRB, 6100 Merriweather Drive, Suite 600, Columbia, MD 21044; Quotient Protocol No. SRP-101 and Quotient Sciences Study No. QSC205130; Quotient Sciences Miami, 3898 NW 7th Street, Miami, FL 33126.). The study comprises a SAD (Part 1) assessment that includes a food effect assessment that contributes data to inform a subsequent MAD (Part 2) dose-ranging study. Safety measurements were collected throughout the study for all subjects. Blood samples were collected to determine the PK parameters of SRP-001. ClinicalTrials.gov identifier: NCT05484414

[3] = Stability of API and oral nanosuspension; type: physicochemical
Experimental: as §1

Structure (SMILES): CCN(CC)C(=O)c1ccccc1S(=O)(=O)NCC(=O)Nc1ccc(O)cc1 [SRP-001, N,N-diethyl-2-[[2-(4-hydroxyanilino)-2-oxo-ethyl]sulfamoyl]benzamide]
- mortality after single doses (dog): did not result in any mortality
- emesis (healthy volunteers; Phase 1 MAD cohort): no emesis was reported
- safety assessments (vital signs, ECG, laboratory tests) (healthy volunteers; SAD and MAD cohorts): revealed no abnormalities
- tolerability / serious adverse events (healthy volunteers; oral nanosuspension, SAD and MAD cohorts, 42 subjects on SRP-001): no serious adverse events (SAEs) reported
- solubility ([1]; after jet milling and nano-milling): increase the solubility
- particle size ([1]; after jet milling and nano-milling for 17 h (FIG. 25A)): 0.1666 μm
- particle size ([1]; before milling (FIG. 25B)): 879.33 μm
- T1/2, geometric mean ([2]; MAD 500 mg, Day 1): 3.06 h
- T1/2, geometric mean ([2]; MAD 1,000 mg, Day 1): 4.05 h
- T1/2, geometric mean ([2]; MAD 1,000 mg, Day 5): 9.77 h
- T1/2, arithmetic mean ([2]; MAD cohorts): 5.57 h
- PK parameters on Day 5 versus Day 1 ([2]; Phase 1 MAD cohort): demonstrated a decrease
- half-life ([2]; human, blood, summary aspect, read-out: half-life in said subject): 4.9 to 9.8 h
- API stable for ([3]; 25° C./60% RH): at least 9 months
- API stable for ([3]; 40° C./75% RH): ≥ 6 months
